Measured values published in ChEMBL document CHEMBL1201862, “PubChem BioAssay data set” (2004).
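Compound exposure: 48 hours, 5 concentrations, 96-well plates. GI50: concentration for 50% inhibition of growth.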 Activity calls are given as the source filed them. Cut-off read from the data, not from the text of the source: active = GI50 up to about 1.1 µM and inactive = higher.

Experiments:
Experiment in all cases: inhibition of tumour cell growth, NCI panel, 48 h
NCI/ADR-RES = system: NCI/ADR-RES
ACHN = system: ACHN
SF-268 = system: SF-268
NCI-H460 = system: NCI-H460
BT-549 = system: BT-549
SF-295 = system: SF-295
K562 = system: K562
HOP-92 = system: HOP-92
IGROV-1 = system: IGROV-1
SK-OV-3 = system: SK-OV-3
HL-60 = system: HL-60
SK-MEL-2 = system: SK-MEL-2
UACC-257 = system: UACC-257
SK-MEL-5 = system: SK-MEL-5
MDA-MB-231 = system: MDA-MB-231
PC-3 = system: PC-3
HOP-62 = system: HOP-62
OVCAR-8 = system: OVCAR-8
EKVX = system: EKVX

SMILES	GI50 (NCI/ADR-RES)	GI50 (ACHN)	GI50 (SF-268)	GI50 (NCI-H460)	GI50 (BT-549)	GI50 (SF-295)	GI50 (K562)	GI50 (HOP-92)	GI50 (IGROV-1)	GI50 (SK-OV-3)	GI50 (HL-60)	GI50 (SK-MEL-2)	GI50 (UACC-257)	GI50 (SK-MEL-5)	GI50 (MDA-MB-231)	GI50 (PC-3)	GI50 (HOP-62)	GI50 (OVCAR-8)	GI50 (EKVX)
CC(C)(C)CN1[C@@H]2CCCC[C@H]2N(CC(C)(C)C)P1(=O)C(O)/C=C/c1ccccc1 (stereo partly specified)	32.7 µM (inactive)	28.9 µM (inactive)	39 µM (inactive)	26.2 µM (inactive)	74.1 µM (inactive)	29.7 µM (inactive)	42.6 µM (inactive)	28.8 µM (inactive)	25.6 µM (inactive)	51.8 µM (inactive)	32 µM (inactive)	33.3 µM (inactive)	30.1 µM (inactive)	18.3 µM (inactive)	45.9 µM (inactive)	37.8 µM (inactive)	50.2 µM (inactive)	62.5 µM (inactive)	50.1 µM (inactive)
O=C1C(Cl)=C(Cl)C(Cl)(Cl)C(Cl)C1(Cl)Cl (stereo unspecified)	25.3 µM (inactive)	29.8 µM (inactive)	19.6 µM (inactive)	19.9 µM (inactive)	19.7 µM (inactive)	21.2 µM (inactive)	24.6 µM (inactive)	16.9 µM (inactive)	17 µM (inactive)	26.2 µM (inactive)	18.4 µM (inactive)	15.8 µM (inactive)	18.4 µM (inactive)	13.7 µM (inactive)	20 µM (inactive)	25 µM (inactive)	23.4 µM (inactive)	32.2 µM (inactive)	20.8 µM (inactive)
CC1OC(O[C@H]2C3C=CO[C@@H](OC4OC(CO)C(O)C(O)C4O)C3[C@@]3(COC(=O)/C=C/c4ccccc4)O[C@@H]23)C(O)C(O)C1O (stereo partly specified)	> 100 µM (inactive)	> 100 µM (inactive)	> 100 µM (inactive)	> 100 µM (inactive)	> 100 µM (inactive)	> 100 µM (inactive)	> 100 µM (inactive)	> 100 µM (inactive)	> 100 µM (inactive)	> 100 µM (inactive)	> 100 µM (inactive)	> 100 µM (inactive)	> 100 µM (inactive)	> 100 µM (inactive)	> 100 µM (inactive)	> 100 µM (inactive)	> 100 µM (inactive)	> 100 µM (inactive)	> 100 µM (inactive)
CO/C=C(/C(=O)OC)c1ccccc1[C@H]1C[C@@H]1c1ccccc1	24 µM (inactive)	22.5 µM (inactive)	24.4 µM (inactive)	19.7 µM (inactive)	20.5 µM (inactive)	23.1 µM (inactive)	26.2 µM (inactive)	21.3 µM (inactive)	19.9 µM (inactive)	16.7 µM (inactive)	21.9 µM (inactive)	17.2 µM (inactive)	15.8 µM (inactive)	8.02 µM (inactive)	31.6 µM (inactive)	22.8 µM (inactive)	35.2 µM (inactive)	28.7 µM (inactive)	15.4 µM (inactive)
C[C@]1(S(=O)(=O)c2ccccc2)C[C@H]2N(Cc3ccccc3)[C@@H]1CCC21OCCO1	46.9 µM (inactive)	> 100 µM (inactive)	> 100 µM (inactive)	67.9 µM (inactive)	> 100 µM (inactive)	90.4 µM (inactive)	> 100 µM (inactive)	88.1 µM (inactive)	> 100 µM (inactive)	> 100 µM (inactive)	13.6 µM (inactive)	> 100 µM (inactive)	22.3 µM (inactive)	75.2 µM (inactive)	> 100 µM (inactive)	70.5 µM (inactive)	> 100 µM (inactive)	> 100 µM (inactive)	> 100 µM (inactive)
CC(=O)O[C@@H]1CO[C@H]2O[C@H]3[C@@H](C(C=O)=C[C@H](O)[C@@H]4C5=C(C(C)C)CC[C@]5(C)CC[C@@]34C)[C@@]2(O)C1=O [STRIATIN E]	0.189 µM (active)	0.114 µM (active)	0.24 µM (active)	0.255 µM (active)	0.12 µM (active)	0.586 µM (active)	0.0869 µM (active)	0.21 µM (active)	0.219 µM (active)	3.74 µM (inactive)	0.0175 µM (active)	0.23 µM (active)	0.219 µM (active)	0.267 µM (active)	0.184 µM (active)	0.0968 µM (active)	0.575 µM (active)	0.13 µM (active)	0.359 µM (active)
CCn1c2c(c3c(C(=O)OC)c(O)ccc31)C(=O)c1ccccc1C2=O	16.6 µM (inactive)	4.69 µM (inactive)	15.3 µM (inactive)	7.19 µM (inactive)	12.5 µM (inactive)	17.3 µM (inactive)	20.4 µM (inactive)	5.52 µM (inactive)	3.61 µM (inactive)	5 µM (inactive)	22.1 µM (inactive)	11.5 µM (inactive)	40.6 µM (inactive)	11.7 µM (inactive)	15.4 µM (inactive)	12.4 µM (inactive)	15.7 µM (inactive)	11.6 µM (inactive)	26 µM (inactive)
Cn1c2ccccc2c(=NNc2ccccc2C(=O)O)c2ccccc21	20.1 µM (inactive)	15.5 µM (inactive)	15.8 µM (inactive)	13.2 µM (inactive)	19.1 µM (inactive)	17.6 µM (inactive)	8.97 µM (inactive)	21.7 µM (inactive)	24.2 µM (inactive)	20.3 µM (inactive)	17 µM (inactive)	18.7 µM (inactive)	23.8 µM (inactive)	13.7 µM (inactive)	16.9 µM (inactive)	12.3 µM (inactive)	23.1 µM (inactive)	17.5 µM (inactive)	11.8 µM (inactive)
CC(C)(C)OC(=O)N1CC(COS(C)(=O)=O)c2ccc(O)cc21 (stereo unspecified)	1.74 µM (inactive)	0.684 µM (active)	1.72 µM (inactive)	2.14 µM (inactive)	1.52 µM (inactive)	2.91 µM (inactive)	2.3 µM (inactive)	2.52 µM (inactive)	2.84 µM (inactive)	3.15 µM (inactive)	1.24 µM (inactive)	1.51 µM (inactive)	2.29 µM (inactive)	1.51 µM (inactive)	2.77 µM (inactive)	1.73 µM (inactive)	3.3 µM (inactive)	1.85 µM (inactive)	2.23 µM (inactive)
O=C1/C(=C/Cc2ccco2)N=C(c2ccccc2)N1c1nc2c(Cl)cc(Cl)cc2s1	24.3 µM (inactive)	24.6 µM (inactive)	40.3 µM (inactive)	32.2 µM (inactive)	26 µM (inactive)	32.1 µM (inactive)	25.1 µM (inactive)	27.8 µM (inactive)	29.9 µM (inactive)	35.2 µM (inactive)	20.9 µM (inactive)	23.7 µM (inactive)	34.4 µM (inactive)	22.5 µM (inactive)	27.2 µM (inactive)	28.3 µM (inactive)	24.8 µM (inactive)	36 µM (inactive)	15 µM (inactive)
c1cc(CSc2ncnc3[nH]cnc23)ccn1	> 100 µM (inactive)	> 100 µM (inactive)	92.9 µM (inactive)	> 100 µM (inactive)	73.8 µM (inactive)	> 100 µM (inactive)	27.8 µM (inactive)	> 100 µM (inactive)	> 100 µM (inactive)	41.3 µM (inactive)	67.9 µM (inactive)	80.5 µM (inactive)	> 100 µM (inactive)	> 100 µM (inactive)	> 100 µM (inactive)	> 100 µM (inactive)	91.8 µM (inactive)	94 µM (inactive)	> 100 µM (inactive)
O=C1c2ccccc2-c2[nH]c3cn[nH]c(=O)c3c21	> 100 µM (inactive)	85.9 µM (inactive)	99.1 µM (inactive)	64.9 µM (inactive)	> 100 µM (inactive)	> 100 µM (inactive)	61.2 µM (inactive)	16.4 µM (inactive)	23.1 µM (inactive)	> 100 µM (inactive)	> 100 µM (inactive)	47.2 µM (inactive)	> 100 µM (inactive)	> 100 µM (inactive)	97.5 µM (inactive)	> 100 µM (inactive)	82 µM (inactive)	> 100 µM (inactive)	79.4 µM (inactive)
C=CC[C@H]1[C@H](O[Si](C)(C)C(C)(C)C)C=CC(=O)[C@@H]1CC(=O)OCC	11 µM (inactive)	14.2 µM (inactive)	14.4 µM (inactive)	14 µM (inactive)	16.5 µM (inactive)	13.5 µM (inactive)	3.13 µM (inactive)	11.5 µM (inactive)	16.4 µM (inactive)	18.3 µM (inactive)	8.04 µM (inactive)	14.9 µM (inactive)	3.98 µM (inactive)	11 µM (inactive)	14.5 µM (inactive)	9.59 µM (inactive)	17.5 µM (inactive)	16.4 µM (inactive)	11.9 µM (inactive)
Nc1nc(Cl)c(N)c(NCC2(CO)CC(OCc3ccccc3)C2)n1 (stereo unspecified)	48 µM (inactive)	> 100 µM (inactive)	> 100 µM (inactive)	> 100 µM (inactive)	> 100 µM (inactive)	> 100 µM (inactive)	74.6 µM (inactive)	> 100 µM (inactive)	> 100 µM (inactive)	> 100 µM (inactive)	> 100 µM (inactive)	> 100 µM (inactive)	48.4 µM (inactive)	20.4 µM (inactive)	> 100 µM (inactive)	> 100 µM (inactive)	> 100 µM (inactive)	> 100 µM (inactive)	> 100 µM (inactive)
